Values quoted from earlier work as cited in publication PMC11904481 (ESMO Open, 2025).
Values joined by “and” are separate entries in the source; they are usually repeats but may differ in a detail not shown here. Identical values can stand only once.

Test system: patients
Details: cited from earlier work; for diarrhea / nausea: patients treated with oral ERK inhibitor
[1] = ocular TEAE, oral ERK inhibitor

Cn1nccc1Nc1nccc(-c2cc3c(s2)C(C)(C)N(CCN2CCOCC2)C3=O)n1 [LY3214996]
blurred vision [1]: 15%

CS[C@@]1(C(=O)Nc2ccc3[nH]nc(-c4ccc(OC(C)C)nc4)c3c2)CCN(CC(=O)N2CC=C(c3ccc(-c4ncn(C)n4)cc3)CC2)C1 [MK-8353]
blurred vision [1]: 8% | oropharyngeal pain (oral ERK inhibitor): 8% | diarrhea: > 40% and 44% | nausea: 28%

Cc1cnc(NC2CCOCC2)nc1-n1cnc(C(=O)N[C@H](CN)c2cc(F)cc(Cl)c2)c1 [ASN007]
diarrhea: 30% | nausea: 30%

CC(C)Nc1cc(-c2c[nH]c(C(=O)N[C@H](CO)c3cccc(Cl)c3)c2)c(Cl)cn1 [ulixertinib]
retinopathy [1]: 14% | diarrhea: > 40% and 48% | nausea: 42% | patients with dose reductions due to toxicity (phase I clinical trial, oral): 32%

Cn1nccc1Nc1nccc(-c2ccn([C@H](CO)c3ccc(Cl)c(F)c3)c(=O)c2)n1 [GDC-0994, (S)-1-(1-(4-chloro-3-fluorophenyl)-2-hydroxyethyl)-4-(2-((1-methyl-1H-pyrazol-5-yl)amino)pyrimidin-4-yl)pyridin-2(1H)-one]
blurred vision [1]: 13% | diarrhea: 49% | nausea: 32%
